19 molecules from PubChem BioAssay AID296 (DTP/NCI, 2004) can be followed below.

In this test the test system is MX-1 breast xenograft, nude mice, tumor weight T/C. The experiment in a line: NCI In Vivo Anticancer Drug Screen. Data for tumor model Human Mammary Carcinoma MX-1 Xenograft (intrarenal inoculation) in NU/NU Swiss (nude) mice. Particulars: endpoint: mean tumor weight change, higher = larger tumour. The method, boiled down:
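Compound dosed to mice with transplantable tumor; vehicle group as control. Endpoint survival or tumour size, reported as T/C.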
A general note: Xenograft models place foreign cells or tissue in a host animal.

Where [1] appears, read: dose: 50.0 mg/kg/injection, schedule: Q01DX010 (sc), vehicle: saline.
[2] abbreviates: dose: 100.0 mg/kg/injection, schedule: Q01DX010 (sc), vehicle: saline.
The mark [3] stands for this setting: dose: 300.0 mg/kg/injection, schedule: Q04DX003 (sc), vehicle: suspension in saline.

Values joined by “and” are separate entries in the source; they are usually repeats but may differ in a detail not shown here. Identical values can stand only once. Records with an inconclusive call do not appear.

Take `Cc1c2ccccc2cc2cccc[n+]12`: the T/C reads like this: (dose: 7.5 mg/kg/injection, schedule: Q04DX003 (sc), vehicle: saline) 74 % of control; (dose: 15.0 mg/kg/injection, schedule: Q04DX003 (sc), vehicle: saline) 88 % of control; (dose: 30.0 mg/kg/injection, schedule: Q04DX003 (sc), vehicle: saline) 67 % of control.

As to `O=c1c(O)c(-c2cc(O)c(O)c(O)c2)oc2cc(O)cc(O)c12`, the T/C is, setting by setting: (dose: 3.0 mg/kg/injection, schedule: Q04DX003 (sc), vehicle: saline with Tween-80) 117 % of control; (dose: 6.0 mg/kg/injection, schedule: Q04DX003 (sc), vehicle: saline with Tween-80) 97 % of control; (dose: 12.0 mg/kg/injection, schedule: Q04DX003 (sc), vehicle: saline with Tween-80) 108 % of control; (dose: 24.0 mg/kg/injection, schedule: Q04DX003 (sc), vehicle: saline with Tween-80) 81 % of control.

In the case of `CN1N=C(N)c2cn(C3OC(COP(=O)(O)O)C(O)C3O)c3ncnc1c23` (stereo unspecified), the T/C is, setting by setting: (dose: 25.0 mg/kg/injection, schedule: Q01DX010 (sc), vehicle: water) -92 % of control and -76 % of control; (dose: 50.0 mg/kg/injection, schedule: Q01DX010 (sc), vehicle: water) -91 % of control and -75 % of control.

In the case of `O=C1CN(Cc2ccc3c(c2)OCO3)NO1`, the T/C is 64 % of control (dose: 150.0 mg/kg/injection, schedule: Q04DX003 (sc), vehicle: saline with Tween-80); 42 % of control (dose: 300.0 mg/kg/injection, schedule: Q04DX003 (sc), vehicle: saline with Tween-80); 39 % of control (dose: 600.0 mg/kg/injection, schedule: Q04DX003 (sc), vehicle: saline with Tween-80).

In the case of `O=CC(S)CO` (stereo unspecified), the T/C (dose: 100.0 mg/kg/injection, schedule: Q04DX003 (sc), vehicle: suspension in saline) was 151 % of control.

Take `CN(C)N=Nc1ccc(C(=O)O)cc1`: the T/C is 55 % of control (dose: 100.0 mg/kg/injection, schedule: Q04DX003 (ip), vehicle: saline); 16 % of control (dose: 200.0 mg/kg/injection, schedule: Q04DX003 (ip), vehicle: saline); -31 % of control (dose: 400.0 mg/kg/injection, schedule: Q04DX003 (ip), vehicle: saline).

As for `COc1cc(OC)c(NC(=O)ON2C(=O)c3ccccc3C2=O)cc1Cl`, the T/C reads like this: (dose: 50.0 mg/kg/injection, schedule: Q04DX003 (sc), vehicle: saline with Tween-80) 95 % of control; (dose: 100.0 mg/kg/injection, schedule: Q04DX003 (sc), vehicle: saline with Tween-80) 103 % of control; (dose: 200.0 mg/kg/injection, schedule: Q04DX003 (sc), vehicle: saline with Tween-80) 85 % of control; (dose: 400.0 mg/kg/injection, schedule: Q04DX003 (sc), vehicle: saline with Tween-80) 114 % of control.

For the molecule `O=C([CH-]C(=O)C(F)(F)F)c1ccccc1.O=C([CH-]C(=O)C(F)(F)F)c1ccccc1.O=C([CH-]C(=O)C(F)(F)F)c1ccccc1.O=C([CH-]C(=O)C(F)(F)F)c1ccccc1.[Eu+3].c1ccncc1`, the T/C was 197 % of control (dose: 50.0 mg/kg/injection, schedule: Q01DX010 (sc), vehicle: Klucel (hydroxypropylcellulose) (HPC)); 174 % of control (dose: 100.0 mg/kg/injection, schedule: Q01DX010 (sc), vehicle: Klucel (hydroxypropylcellulose) (HPC)); 97 % of control (dose: 200.0 mg/kg/injection, schedule: Q01DX010 (sc), vehicle: Klucel (hydroxypropylcellulose) (HPC)); 178 % of control (dose: 400.0 mg/kg/injection, schedule: Q01DX010 (sc), vehicle: Klucel (hydroxypropylcellulose) (HPC)).

As to `CN(CO)c1nc(N(C)CO)nc(N(C)CO)n1`, the T/C (dose: 12.5 mg/kg/injection, schedule: Q01DX010 (sc), vehicle: saline) was 157 % of control; the T/C (dose: 25.0 mg/kg/injection, schedule: Q01DX010 (sc), vehicle: saline) is 55 % of control; the T/C under setting [1] was 4 % of control; the T/C under setting [2] was -81 % of control; the T/C (dose: 100.0 mg/kg/injection, schedule: Q01DX010 (sc), vehicle: suspension in saline) was -100 % of control; the T/C (dose: 150.0 mg/kg/injection, schedule: Q04DX003 (sc), vehicle: saline) is -80 % of control and -77 % of control and -57 % of control. In addition, the T/C (dose: 200.0 mg/kg/injection, schedule: Q01DX010 (sc), vehicle: suspension in saline) was -100 % of control; the T/C (dose: 300.0 mg/kg/injection, schedule: Q04DX003 (sc), vehicle: saline) was -85 % of control and -84 % of control; the T/C under setting [3] is -87 % of control and -100 % of control.

Take `CO[C@@]12[C@@H]3N[C@@H]3CN1C1=C(C(=O)C(NCCc3ccccn3)=C(C)C1=O)[C@@H]2COC(N)=O`: the T/C reads like this: (dose: 6.25 mg/kg/injection, schedule: Q04DX003 (ip), vehicle: saline with Tween-80) -84 % of control; (dose: 12.5 mg/kg/injection, schedule: Q04DX003 (ip), vehicle: saline with Tween-80) -21 % of control; (dose: 25.0 mg/kg/injection, schedule: Q04DX003 (ip), vehicle: saline with Tween-80) -95 % of control.

In the case of `S=c1nc[nH]c2nc[nH]c12`, the T/C by setting is: (dose: 5.25 mg/kg/injection, schedule: Q01DX010 (sc), vehicle: Klucel (hydroxypropylcellulose) (HPC)) 118 % of control; (dose: 12.5 mg/kg/injection, schedule: Q01DX010 (sc), vehicle: Klucel (hydroxypropylcellulose) (HPC)) 72 % of control and 79 % of control.

As for `Nc1nc(N)c2cc(CNc3ccc(C(=O)NC(CC(=O)O)CC(=O)O)cc3)ccc2n1`, the T/C by setting is: (dose: 25.0 mg/kg/injection, schedule: Q04DX003 (sc), vehicle: Klucel (hydroxypropylcellulose) (HPC)) 86 % of control; (dose: 50.0 mg/kg/injection, schedule: Q04DX003 (sc), vehicle: Klucel (hydroxypropylcellulose) (HPC)) 96 % of control; (dose: 100.0 mg/kg/injection, schedule: Q04DX003 (sc), vehicle: Klucel (hydroxypropylcellulose) (HPC)) 75 % of control; (dose: 200.0 mg/kg/injection, schedule: Q04DX003 (sc), vehicle: Klucel (hydroxypropylcellulose) (HPC)) 85 % of control.

As for `CO[C@@]12[C@H](COC(N)=O)C3=C(C(=O)C(C)=C(N)C3=O)N1C[C@@H]1N[C@@H]12`, the T/C runs as follows: (dose: 3.0 mg/kg/injection, schedule: Q04DX003 (sc), vehicle: saline) -100 % of control; (dose: 6.0 mg/kg/injection, schedule: Q04DX003 (sc), vehicle: saline) -88 % of control and -100 % of control (2×).

On to `CCCCc1ccc2nc(NC(=O)OC)[nH]c2c1`, for which the T/C is, setting by setting: (dose: 200.0 mg/kg/injection, schedule: Q01DX010 (sc), vehicle: saline with Tween-80) 109 % of control; (dose: 400.0 mg/kg/injection, schedule: Q01DX010 (sc), vehicle: saline with Tween-80) 69 % of control; (dose: 800.0 mg/kg/injection, schedule: Q01DX010 (sc), vehicle: saline with Tween-80) 48 % of control.

For `CC(=O)NCCCCCCNC(C)=O`, the T/C is 163 % of control under setting [1]; 124 % of control under setting [2]; 103 % of control and 111 % of control (dose: 200.0 mg/kg/injection, schedule: Q01DX010 (sc), vehicle: saline); 84 % of control (dose: 400.0 mg/kg/injection, schedule: Q01DX010 (sc), vehicle: saline); 88 % of control (dose: 800.0 mg/kg/injection, schedule: Q01DX010 (sc), vehicle: saline); 78 % of control and 103 % of control (dose: 1600.0 mg/kg/injection, schedule: Q01DX010 (sc), vehicle: saline). The T/C was 104 % of control (dose: 3200.0 mg/kg/injection, schedule: Q01DX010 (sc), vehicle: saline) and 58 % of control (dose: 6400.0 mg/kg/injection, schedule: Q01DX010 (sc), vehicle: saline).

Turning to `C(CC1CO1)C1CO1` (stereo unspecified), the T/C reads like this: under setting [2], -59 % of control and -41 % of control; (dose: 150.0 mg/kg/injection, schedule: Q04DX003 (sc), vehicle: suspension in saline) 1 % of control and 11 % of control; under setting [3], 4 % of control.

As to `C[C@H](N)C(=O)N[C@@H]1[C@H]2C(=C(O)C[C@@H](O)[C@@H]2O)C(=O)O[C@]1(C)C(Cl)Cl`, the T/C is, setting by setting: (dose: 1.5 mg/kg/injection, schedule: Q04DX003 (sc), vehicle: Klucel (hydroxypropylcellulose) (HPC)) 153 % of control; (dose: 6.0 mg/kg/injection, schedule: Q04DX003 (sc), vehicle: Klucel (hydroxypropylcellulose) (HPC)) 92 % of control.

For `NC(=O)CC(N)C(=O)O` (stereo unspecified), the T/C (dose: 1600.0 mg/kg/injection, schedule: Q04DX003 (sc), vehicle: saline) is 88 % of control; the T/C (dose: 3200.0 mg/kg/injection, schedule: Q04DX003 (sc), vehicle: saline) is 68 % of control; the T/C (dose: 6400.0 mg/kg/injection, schedule: Q04DX003 (sc), vehicle: saline) was 90 % of control.

Consider `COC1OC(CO)C(O)C(NC(=O)N(C)N=O)C1O` (stereo unspecified), for which the T/C is 45 % of control (dose: 225.0 mg/kg/injection, schedule: Q04DX003 (sc), vehicle: saline); 18 % of control and 20 % of control (2×) (dose: 900.0 mg/kg/injection, schedule: Q04DX003 (sc), vehicle: saline); 3 % of control and 4 % of control (dose: 1800.0 mg/kg/injection, schedule: Q04DX003 (sc), vehicle: saline).
